Source: article PMC9627135 (Cancer discovery, 2022)

What was measured:
HOXA9/10 expression = assay: Time course of HOXA9/10 expression; type: cell-based; conditions: Supplementary Fig. S6D, S6E
[1] = tested on: primary human hepatocytes; conditions: cited from earlier work
ENL-FKBP12(F36V) = ENL-FKBP12(F36V) (Homo sapiens, UniProt Q03111); assay: dTAG-mediated degradation of ENL-FKBP12; type: cell-based; conditions: treatment for 6 or 24 hours

SMILES: CC(C)N(C[C@H]1O[C@@H](n2cnc3c(N)ncnc32)[C@H](O)[C@@H]1O)[C@H]1C[C@@H](CCc2nc3cc(C(C)(C)C)ccc3[nH]2)C1 [EPZ-5676]
- kinetics of suppression of HOXA9/10 expression (HOXA9/10 expression): suppressed expression of the same genes at much later time points

SMILES: C[C@H]1CCCN1Cc1nc2cc(NC(=O)c3ccc4c(cnn4C)c3)ccc2[nH]1 [SGC-iMLLT]
- half-life in primary human hepatocytes [1]: modest half-life

SMILES: CC[C@H](C(=O)N1CCCC[C@H]1C(=O)O[C@H](CCc1ccc(OC)c(OC)c1)c1ccccc1OCC(=O)NCCCCCCOc1cccc2c1C(=O)N(C1CCC(=O)NC1=O)C2=O)c1cc(OC)c(OC)c(OC)c1 (stereo partly drawn) [dTAG13]
- level of ENL-FKBP12 proteins (ENL-FKBP12(F36V)): substantial decrease of ENL-FKBP12 proteins
